Reference: patent publication US20070259879A1, “Piperazine and piperidine biaryl derivatives” (priority 2006, published 2007)

Each compound was assayed on HIV-1 pseudotyped virus (assay: HIV-1 pseudotyped virus assay (luciferase reporter gene, single cycle of infection)). Conditions: Human immunodeficiency virus 1, CCR5, 72 h, read-out: Activity (antiviral activity, IC50).
Assay type: cell-based
Description: In this example are illustrated experimental procedures for determining biological activity, such as antiviral activity. For determining biological activity, an HIV-1 infection assay was used to determine the antiviral potency for compounds of the present invention.
For determining biological activity, an HIV-1 pseudotyped virus assay was used to determine the respective antiviral potencies of each compound tested in the assay for comparison. The pseudotyped assay scores for a reduction in infection as indicated by decreased signal from the reporter gene encoding a luciferase enzyme (“reporter gene”). The assay employs cell lines expressing CD4 and either of the primary chemokine receptors (CCR5 or CXCR4) that HIV uses as a co-receptor (“target cells”). Pseudotyped virus was prepared by co-transfection of 293T cells with: 1) a plasmid construct carrying the HIV-1 envelope of choice, in combination with 2) a pseudotyped virus backbone construct in which (a) envelope expression has been abrogated due to a frameshift in the envelope sequence, and (b) the reporter gene replaces nef. Expression of HIV-1 envelope on 293T packaging cells results in the production of a pseudotyped virus carrying the reporter gene that is capable of a single cycle of infection.
The compounds of the present invention being tested for antiviral activity were serially diluted and dose responses determined in duplicate in two separate experiments. The compounds to be tested were added directly to the plated, target cells, followed by the addition of pseudotyped virus described above. The cells were cultured for three days prior harvest. Media and compound were removed, the cell monolayer was washed, lysed by detergent, and then frozen at −80 degrees C. for a minimum of 30 minutes. Following thawing and acclimation to room temperature, luciferase production was quatified by injecting 100 […]I of a substrate (of the enzyme encoded by the reporter gene) into each well followed by detecting the signal (light emitted from the interaction between the enzyme and substrate) after 5 seconds. In the pseudotyped assay, a 50% reduction in signal is significant, and provides the primary cutoff value for assessing antiviral activity (“IC50” is defined as the dilution resulting in a 50% reduction in enzymatic activity as interpolated from a titration curve). Representative compounds according to the present invention, and their antiviral activity, are illustrated in Table 3.

Row | Compound | IC50 [µM]
1 | CC1CN(C(=O)c2ccccc2)CCN1C(=O)C(=O)c1ccc(-n2cncn2)cc1 (stereo not shown) [Example 170, 1-(4-Benzoyl-2-methyl-piperazin-1-yl)-2-(4-[1,2,4]triazol-1-yl-phenyl)-ethane-1,2-dione] | < 5
2 | CC1CN(C(=O)c2ccccc2)CCN1C(=O)C(=O)c1ccc(-c2ccco2)cc1 (stereo not shown) [Example 171, 1-(4-Benzoyl-2-methyl-piperazin-1-yl)-2-(4-furan-2-yl-phenyl)-ethane-1,2-dione] | < 5
3 | CC1CN(C(=O)c2ccccc2)CCN1C(=O)C(=O)c1ccc(-c2ccn(C)n2)cc1 (stereo not shown) [Example 172, 1-(4-Benzoyl-2-methyl-piperazin-1-yl)-2-[4-(1-methyl-1H-pyrazol-3-yl)-phenyl]-ethane-1,2-dione] | < 5
4 | Cc1ccc(-c2ccc(C(=O)C(=O)N3CCN(C(=O)c4ccccc4)CC3C)cc2)o1 (stereo not shown) [Example 173, 1-(4-Benzoyl-2-methyl-piperazin-1-yl)-2-[4-(5-methyl-furan-2-yl)-phenyl]-ethane-1,2-dione] | < 5
5 | CC1CN(C(=O)c2ccccc2)CCN1C(=O)C(=O)c1ccc(-n2nccn2)cc1 (stereo not shown) [Example 174, 1-(4-Benzoyl-2-methyl-piperazin-1-yl)-2-(4-[1,2,3]triazol-2-yl-phenyl)-ethane-1,2-dione] | < 5
6 | COc1cc(C(=O)C(=O)N2CCN(C(=O)c3ccccc3)C[C@H]2C)ccc1-c1cnco1 [Example 175] | < 5
7 | C[C@@H]1CN(C(=O)c2ccccc2)CCN1C(=O)C(=O)c1ccc(-c2cncs2)cc1 [Example 176] | < 5
8 | C[C@@H]1CN(C(=O)c2ccccc2)CCN1C(=O)C(=O)c1ccc(-c2cscn2)cc1 [Example 177] | < 5
9 | C[C@@H]1CN(C(=O)c2ccccc2)CCN1C(=O)C(=O)c1ccc(-c2cscn2)s1 [Example 178] | < 5
10 | C[C@@H]1CN(C(=O)c2ccccc2)CCN1C(=O)C(=O)c1ccc(-c2cncs2)s1 [Example 179] | < 5
11 | COc1cc(-c2cc(C)no2)ccc1C(=O)C(=O)N1CCN(C(=O)c2ccccc2)C[C@H]1C [Example 180] | < 5
12 | Cc1cc(-c2cc[nH]n2)ccc1C(=O)C(=O)N1CCN(C(=O)c2ccccc2)C[C@H]1C [Example 181, 1-((R)-4-Benzoyl-2-methyl-piperazin-1-yl)-2-[2-methyl-4-(1H-pyrazol-3-yl)-phenyl]-ethane-1,2-dione] | < 5
13 | Cc1ncc(-c2ccc(C(=O)C(=O)N3CCN(C(=O)c4ccccc4)C[C@H]3C)s2)s1 [Example 182] | > 5
14 | C[C@@H]1CN(C(=O)c2ccccc2)CCN1C(=O)C(=O)c1ccc(-c2cc[nH]n2)cc1F [Example 183] | < 5
15 | Cc1cc(C(=O)C(=O)N2CCN(C(=O)c3ccccc3)C[C@H]2C)ccc1-c1cc[nH]n1 [Example 184, 1-((R)-4-Benzoyl-2-methyl-piperazin-1-yl)-2-[3-methyl-4-(1H-pyrazol-3-yl)-phenyl]-ethane-1,2-dione] | < 5
16 | COc1cc(C(=O)C(=O)N2CCN(C(=O)c3ccccc3)C[C@H]2C)ccc1-c1cc(C)no1 [Example 185] | < 5
17 | C[C@@H]1CN(C(=O)c2ccccc2)CCN1C(=O)C(=O)c1ccc(-c2ccn[nH]2)nc1 [Example 186, 1-((R)-4-Benzoyl-2-methyl-piperazin-1-yl)-2-[6-(1H-pyrazol-3-yl)-pyridin-3-yl]-ethane-1,2-dione] | < 5
18 | C[C@@H]1CN(C(=O)c2ccccc2)CCN1C(=O)C(=O)c1ccc(-c2nccn2C)cc1 [Example 187] | > 5
19 | C[C@@H]1CN(C(=O)c2ccccc2)CCN1C(=O)C(=O)c1ccc(-c2nccn2C)s1 [Example 188] | > 5
20 | C[C@@H]1CN(C(=O)c2ccccc2)CCN1C(=O)C(=O)c1ccc(-c2cnco2)c(Cl)c1 [Example 189] | < 5
21 | COc1cc(-c2cc[nH]n2)ccc1C(=O)C(=O)N1CCN(C(=O)c2ccccc2)C[C@H]1C [Example 190] | < 5
22 | COc1cc(C(=O)C(=O)N2CCN(C(=O)c3ccccc3)C[C@H]2C)ccc1-c1cc[nH]n1 [Example 191] | < 5
23 | C[C@@H]1CN(C(=O)c2ccccc2)CCN1C(=O)C(=O)c1ccc(-c2cc[nH]n2)cc1Cl [Example 192] | < 5
24 | C[C@@H]1CN(C(=O)c2ccccc2)CCN1C(=O)C(=O)c1ccc(-n2cccn2)cc1 [Example 193, 1-((R)-4-Benzoyl-2-methyl-piperazin-1-yl)-2-(4-pyrazol-1-yl-phenyl)-ethane-1,2-dione] | < 5
25 | Cc1noc(C)c1-c1ccc(C(=O)C(=O)N2CCN(C(=O)c3ccccc3)C[C@H]2C)cn1 [Example 194] | > 5

Row | Compound | IC50 [µM]
26 | Cc1cc(-n2cccn2)ccc1C(=O)C(=O)N1CCN(C(=O)c2ccccc2)C[C@H]1C [Example 195, 1-((R)-4-Benzoyl-2-methyl-piperazin-1-yl)-2-(2-methyl-4-pyrazol-1-yl-phenyl)-ethane-1,2-dione] | > 5
27 | C[C@@H]1CN(C(=O)c2ccccc2)CCN1C(=O)C(=O)c1c[nH]c(-c2cccnc2)c1 [Example 196] | > 5
28 | CC1CN(C(=O)c2ccccc2)CCN1C(=O)C(=O)c1ccc(-c2cnn(C)c2)cc1 (stereo not shown) [Example 197] | < 5
29 | CC(=O)c1ccc(-c2ccc(C(=O)C(=O)N3CCN(C(=O)c4ccccc4)C[C@H]3C)cc2)s1 [Example 198] | < 5
30 | C[C@@H]1CN(C(=O)c2ccccc2)CCN1C(=O)C(=O)c1ccc(-c2cccnc2)cc1 [Example 199] | < 5
31 | CC1CN(C(=O)c2ccccc2)CCN1C(=O)C(=O)c1ccc(-c2ncccc2F)cc1 (stereo not shown) [Example 200] | < 5
32 | C[C@@H]1CN(C(=O)c2ccccc2)CCN1C(=O)C(=O)c1ccc(-c2ccc(C(F)(F)F)cn2)cc1 [Example 201] | < 5
33 | COc1cc(-c2ccc(C(=O)C(=O)N3CCN(C(=O)c4ccccc4)C[C@H]3C)cc2)nc(OC)n1 [Example 202] | < 5
34 | C[C@@H]1CN(C(=O)c2ccccc2)CCN1C(=O)C(=O)c1ccc(-c2ncccn2)cc1 [Example 203] | < 5
35 | C[C@@H]1CN(C(=O)c2ccccc2)CCN1C(=O)C(=O)c1ccc(-c2ccsc2)cc1 [Example 204] | < 5
36 | C[C@@H]1CN(C(=O)c2ccccc2)CCN1C(=O)C(=O)c1ccc(-c2cccs2)cc1 [Example 205] | < 5
37 | C[C@@H]1CN(C(=O)c2ccccc2)CCN1C(=O)C(=O)c1ccc(-c2ccncc2)cc1 [Example 206] | < 5
38 | Cc1ccc(-c2ccc(C(=O)C(=O)N3CCN(C(=O)c4ccccc4)C[C@H]3C)cc2)nc1 [Example 207] | < 5
39 | Cc1ccnc(-c2ccc(C(=O)C(=O)N3CCN(C(=O)c4ccccc4)CC3C)cc2)n1 (stereo not shown) [Example 208] | < 5
40 | Cc1cc(-c2ccc(C(=O)C(=O)N3CCN(C(=O)c4ccccc4)C[C@H]3C)c(Cl)c2)on1 [Example 209] | < 5
41 | Cc1cc(-c2ccc(C(=O)C(=O)N3CCN(C(=O)c4ccccc4)C[C@H]3C)cc2F)on1 [Example 210] | < 5
42 | C[C@@H]1CN(C(=O)c2ccccc2)CCN1C(=O)C(=O)c1ccc(N2CCCC2)cc1 [Example 211, 1-((R)-4-Benzoyl-2-methyl-piperazin-1-yl)-2-(4-pyrrolidin-1-yl-phenyl)-ethane-1,2-dione] | > 5
43 | C[C@@H]1CN(C(=O)c2ccccc2)CCN1C(=O)C(=O)c1ccc(N2CCOC2=O)cc1 [Example 212, 1-((R)-4-Benzoyl-2-methyl-piperazin-1-yl)-2-[4-(2-oxo-oxazolidin-3-yl)-phenyl]-ethane-1,2-dione] | > 5
44 | Cc1cc(C(=O)C(=O)N2CCN(C(=O)c3ccccc3)C[C@H]2C)ccc1-n1cccn1 [Example 213, 1-((R)-4-Benzoyl-2-methyl-piperazin-1-yl)-2-(3-methyl-4-pyrazol-1-yl-phenyl)-ethane-1,2-dione] | > 5
45 | C[C@@H]1CN(C(=O)c2ccccc2)CCN1C(=O)C(=O)c1ccc(-n2cccn2)nc1 [Example 214, 1-((R)-4-Benzoyl-2-methyl-piperazin-1-yl)-2-(6-pyrazol-1-yl-pyridin-3-yl)-ethane-1,2-dione] | < 5
46 | C[C@@H]1CN(C(=O)c2ccccc2)CCN1C(=O)C(=O)c1ccc(-c2cc[nH]n2)cc1N(C)C [Example 216, 1-((R)-4-Benzoyl-2-methyl-piperazin-1-yl)-2-[2-dimethylamino-4-(1H-pyrazol-3-yl)-phenyl]-ethane-1,2-dione] | > 5
47 | C[C@@H]1CN(C(=O)c2ccccc2)CCN1C(=O)C(=O)c1ccc(-n2ccnc2)cc1 [Example 217] | < 5
48 | Cc1cc(-n2ccnc2)ccc1C(=O)C(=O)N1CCN(C(=O)c2ccccc2)C[C@H]1C [Example 218] | < 5
49 | C[C@@H]1CN(C(=O)c2ccccc2)CCN1C(=O)C(=O)c1ccc(-c2cc[nH]n2)cc1N [Example 219, 1-((R)-4-Benzoyl-2-methyl-piperazin-1-yl)-2-[2-amino-4-(1H-pyrazol-3-yl)-phenyl]-ethane-1,2-dione] | < 5
